Test results: patent publication US20120142627A1, “MONOPHOSPHATE PRODRUGS OF DAPD AND ANALOGS THEREOF” (Emory University, priority 2010, published 2012)
Like-named read-outs stand apart in the source and are kept apart here.

Tests used:
PBM cells = assay: Intracellular metabolites (DXG-TP, DAPD-TP) in PBM cells; format: in vitro ADME, human; conditions: for DXG-TP levels: PBM cells incubated for 4 h at 50 µM, mean and S.D.; for intracellular DXG-TP detected (in words) / intracellular phosphorylated DAPD / DAPD-TP detected (in words): PBM cells, 50 μM, 4 h, 37° C.
Experimental: Reexamination of the intracellular metabolism of DAPD, which contains a 6-amino group, at 50 μM for 4 h in PBM cells at 37° C. resulted the detection of high levels of DXG-TP in addition to DXG and DXG-MP.
PBM cells were incubated with the corresponding compounds for 4 h […]. The data plotted represent the mean value and S.D. of experiments with PBM cells.

[1] = system: PHA-stimulated human PBMCs and CEM cells; conditions: cited from earlier work
human PBM cells = assay: Cytotoxicity in human PBM cells; format: cell-based
Experimental: v) Cellular Toxicity Assays: 6-Substituted-2-amino purine dioxolane monophosphate prodrugs were evaluated for their potential toxic effects on P4/R5 cells, MT-2 cells and uninfected PHA-stimulated human PBM cell. Log-phase P4/R5, MT-2, and PHA-stimulated human PBM cells were seeded at 5×10^3 to 5×10^4 cells/well in 96-well cell culture plates containing 10-fold serial dilutions of the test drug. The cultures were incubated for 2-4 days, after which 3-(4,5-dimethylthiazol-2-yl)-2,5-diphenyltetrazolium bromide (MIT) dye solution (Promega, Madison, Wis.) were added to each well and incubated overnight. The reaction was stopped with stop solubilization solution (Promega, Madison, Wis.) and plates were read at a wavelength of 570 nm.

[2] = system: CEM (human lymphoblastoid) cells; assay: Cytotoxicity in CEM cells; conditions: Lymphoblastoid cell, read-out: CEM IC50
Source text: (§1) The toxicity of the compounds can be assessed in Vero, human PBM, CEM (human lymphoblastoid), MT-2, and HepG2 cells, as described previously (see Schinazi R. F., Sommadossi J.-P., Saalmann V., Cannon D. L., Xie M.-Y., Hart G. C., Smith G. A. & Hahn E. F. Antimicrob. Agents Chemother. 1990, 34, 1061-67). Cycloheximide can be included as positive cytotoxic control, and untreated cells exposed to solvent can be included as negative controls. The cytotoxicity IC50 can be obtained from the concentration-response curve using the median effective method described previously (see Chou T.-C. & Talalay P. Adv. Enzyme Regul. 1984, 22, 27-55; Belen'kii M. S. & Schinazi R. F. Antiviral Res. 1994, 25, 1-11).

HIV-1LAI = assay: Anti-HIV (in PBM cells) assay; format: cell-based; conditions: Human immunodeficiency virus 1, PBMC; for EC50: read-out: HIV EC50; for EC90: read-out: HIV EC90
Experimental: Stock solutions (20-40 mM) of the compounds were prepared in sterile DMSO and then diluted to the desired concentration in growth medium. Cells were infected with the prototype HIV-1LAI at a multiplicity of infection of 0.01. Virus obtained from the cell supernatant was quantified on day 6 after infection by a reverse transcriptase assay using (rA)n.(dT)12-18 as template-primer. The DMSO present in the diluted solution (<0.1%) had no effect on the virus yield. AZT was included as positive control.

Vero cells = assay: Cytotoxicity in Vero cells; conditions: Chlorocebus sabaeus, read-out: Vero IC50
Source text: as §1

adenosine deaminase = assay: Adenosine deaminase assay; format: biochemical; conditions: 7 minutes, 0.002 units of enzyme, 50 μM, pH 7.4, 25° C.
Experimental: To determine the propensity for deamination of the 6-substituted-2-amino purine dioxolane monophosphate prodrugs by adenosine deaminase, nucleoside compounds were incubated with the commercially available purified enzyme, and the reaction was followed spectrophotometrically. Reaction conditions were 50 mM potassium phosphate, pH 7.4, with 50 μM nucleoside analog in 0.5 mL at 25° C. Reaction time was 7 minutes with 0.002 units of enzyme and 120 minutes with 0.2 units of enzyme. (The unit definition of adenosine deaminase is one unit will deaminate 1.0 μmol of adenosine to inosine per minute at pH 7.5 at 25° C.) Deoxyadenosine was the positive control which was 59% deaminated under the given conditions in 7 minutes with 0.002 units of enzyme. Deoxyguanosine was the negative control. Optical density was measured at 265 nm or 285 nm. The difference in optical density between the beginning and the end of the experiment was divided by the extinction coefficient then multiplied by the volume of the reaction to determine the number of mols of substrate transformed into product. Mols of product were divided by mols of substrate equivalent to a 100% complete reaction then multiplied by 100 to obtain percent deamination. The limit of detection was 0.001 optical density units.

Nc1nc2c(ncn2[C@H]2CO[C@@H](CO)O2)c(=O)[nH]1 [DXG, (−)-β-D-dioxolane guanine]
DXG-TP levels (PBM cells): 1.75 ± 0.07 pmol/10^6 cells

Nc1nc(N)c2ncn([C@H]3CO[C@@H](CO)O3)c2n1 [DAPD]
DAPD level in PBMCs relative to CEM cells [1]: 27 fold | phosphorylation of DAPD to mono-, di-, or triphosphate forms ([1]; either cell type): No phosphorylation | intracellular DXG-TP detected (in words) (PBM cells): high levels | intracellular phosphorylated DAPD / DAPD-TP detected (in words) (PBM cells): no phosphorylated forms of DAPD were detected | IC50 (human PBM cells; Homo sapiens, PBMC, cytotoxicity): > 100 µM | IC50 [2]: > 100 µM | EC50 (HIV-1LAI; human PBM cells): 1000 nM | EC90 (HIV-1LAI; human PBM cells): 6.5 µM | IC50 (Vero cells): > 100 µM

COc1nc(N)nc2c1ncn2C1COC(CO)O1 (centres unmarked) [6-OMe-DXG]
DXG-TP levels (PBM cells): 0.55 pmol/10^6 cells

CCOC(=O)[C@H](C)NP(=O)(OC[C@@H]1OC[C@H](n2cnc3c(N)nc(N)nc32)O1)Oc1ccccc1 (some centres unmarked) [RS-864]
intracellular DXG-TP detected (in words) (PBM cells): low levels | intracellular phosphorylated DAPD / DAPD-TP detected (in words) (PBM cells): very high levels | PBM IC50 (printed as % @ 100 μM) (human PBM cells; @ 100 μM): 66.5% | IC50 [2]: > 100 µM | EC50 (HIV-1LAI): 240 nM | EC90 (HIV-1LAI): 1.3 µM | IC50 (Vero cells): > 100 µM

Nc1ncnc2c1ncn2[C@H]1C[C@H](O)[C@@H](CO)O1 [Deoxyadenosine]
percent deaminated by adenosine deaminase (adenosine deaminase): 59%

Nc1nc(Cl)c2ncn(C3COC(CO)O3)c2n1 (centres unmarked) [6-Cl-DXG]
DXG-TP levels (PBM cells): 0.10 pmol/10^6 cells
